From PubChem BioAssay (NCI)
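GI50 is the concentration that inhibits growth by half. TGI is the concentration that stops growth completely.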

What was measured:
Assay in all cases: NCI tumour cell line growth inhibition, 384-well format
[1] = tested on: 786-0 renal
[2] = tested on: A498 renal
[3] = tested on: A549 NSCLC
[4] = tested on: ACHN renal
[5] = tested on: BT-549 breast
[6] = tested on: CAKI-1 renal
[7] = tested on: CCRF-CEM leukemia
[8] = tested on: COLO 205 colon
[9] = tested on: DU-145 prostate
[10] = tested on: EKVX NSCLC
[11] = tested on: HCC-2998 colon
[12] = tested on: HCT-116 colon
[13] = tested on: HCT-15 colon
[14] = tested on: HL-60(TB) leukemia
[15] = tested on: HOP-62 NSCLC
[16] = tested on: HOP-92 NSCLC
[17] = tested on: HS 578T breast
[18] = tested on: HT29 colon
[19] = tested on: IGROV1 ovarian
[20] = tested on: K-562 leukemia
[21] = tested on: KM12 colon
[22] = tested on: LOX IMVI melanoma
[23] = tested on: M14 melanoma
[24] = tested on: MALME-3M melanoma
[25] = tested on: MCF7 breast
[26] = tested on: MDA-MB-231 breast
[27] = tested on: MDA-MB-435 melanoma
[28] = tested on: MDA-MB-468 breast
[29] = tested on: MOLT-4 leukemia
[30] = tested on: NCI-H226 lung
[31] = tested on: NCI-H23 lung
[32] = tested on: NCI-H322M lung
[33] = tested on: NCI-H460 NSCLC
[34] = tested on: NCI-H522 lung
[35] = tested on: NCI/ADR-RES ovarian
[36] = tested on: OVCAR-3 ovarian
[37] = tested on: OVCAR-4 ovarian
[38] = tested on: OVCAR-5 ovarian
[39] = tested on: OVCAR-8 ovarian
[40] = tested on: PC-3 prostate
[41] = tested on: RPMI-8226 leukemia
[42] = tested on: RXF 393 renal
[43] = tested on: SF-268 CNS
[44] = tested on: SF-295 CNS
[45] = tested on: SF-539 CNS
[46] = tested on: SK-MEL-28 melanoma
[47] = tested on: SK-MEL-5 melanoma
[48] = tested on: SK-OV-3 ovarian
[49] = tested on: SN12C renal
[50] = tested on: SNB-19 CNS
[51] = tested on: SNB-75 CNS
[52] = tested on: SW-620 colon
[53] = tested on: T-47D breast
[54] = tested on: TK-10 renal
[55] = tested on: U251 glioblastoma
[56] = tested on: UACC-62 melanoma
[57] = tested on: UO-31 renal

Q: How did the GI50 [1] turn out when `Cn1ccc(S(=O)(=O)N2CCC[C@H](Nc3nccc(-c4c(-c5cccc(O)c5)nc5occn45)n3)C2)n1` was run?
A: The GI50 was 7.2 µM.

Q: What about the TGI [1] of the same compound?
A: Its TGI is 32.5 µM.

Q: What about the GI50 [2] of the same compound?
A: Its GI50 is 3.82 µM.

Q: And the TGI [2]?
A: Its TGI is 17.2 µM.

Q: And the GI50 [3]?
A: Its GI50 is 11.9 µM.

Q: What about the TGI [3] of the same compound?
A: The TGI was 25.2 µM.

Q: And the GI50 [4]?
A: Its GI50 is 7.99 µM.

Q: And the TGI [4]?
A: The TGI was 35.8 µM.

Q: And the GI50 [5]?
A: The GI50 was 7.47 µM.

Q: And the TGI [5]?
A: The TGI was 21.8 µM.

Q: What about the GI50 [6] of the same compound?
A: Its GI50 is 4.38 µM.

Q: And the TGI [6]?
A: The TGI was 19.3 µM.

Q: And the GI50 [7]?
A: The GI50 was 2.32 µM.

Q: And the TGI [7]?
A: The TGI was 4.7 µM.

Q: And the GI50 [8]?
A: The GI50 was under 0.01 µM.

Q: What about the TGI [8] of the same compound?
A: Its TGI is 20.2 µM.

Q: And the GI50 [9]?
A: Its GI50 is 14.4 µM.

Q: And the TGI [9]?
A: Its TGI is 33.8 µM.

Q: And the GI50 [10]?
A: The GI50 was 4.71 µM.

Q: And the TGI [10]?
A: The TGI was 17.5 µM.

Q: What about the GI50 [11] of the same compound?
A: Its GI50 is 4.05 µM.

Q: And the TGI [11]?
A: Its TGI is 11.2 µM.

Q: And the GI50 [12]?
A: The GI50 was 3.59 µM.

Q: What about the TGI [12] of the same compound?
A: Its TGI is 16.4 µM.

Q: What about the GI50 [13] of the same compound?
A: The GI50 was 14.2 µM.

Q: What about the TGI [13] of the same compound?
A: Its TGI is 35.7 µM.

Q: And the GI50 [14]?
A: The GI50 was 8.06 µM.

Q: And the TGI [14]?
A: The TGI was 20.1 µM.

Q: What about the GI50 [15] of the same compound?
A: Its GI50 is 10.4 µM.

Q: What about the TGI [15] of the same compound?
A: The TGI was 30.7 µM.

Q: And the GI50 [16]?
A: Its GI50 is 5.55 µM.

Q: What about the TGI [16] of the same compound?
A: The TGI was 26.4 µM.

Q: What about the GI50 [17] of the same compound?
A: The GI50 was 3.33 µM.

Q: And the TGI [17]?
A: The TGI was 15.8 µM.

Q: And the GI50 [18]?
A: The GI50 was 0.325 µM.

Q: And the TGI [18]?
A: Its TGI is 13.7 µM.

Q: And the GI50 [19]?
A: The GI50 was 4.14 µM.

Q: What about the TGI [19] of the same compound?
A: Its TGI is 17 µM.

Q: And the GI50 [20]?
A: The GI50 was 7.07 µM.

Q: What about the TGI [20] of the same compound?
A: The TGI was 41.4 µM.

Q: What about the GI50 [21] of the same compound?
A: The GI50 was 15.1 µM.

Q: What about the TGI [21] of the same compound?
A: Its TGI is 35.5 µM.

Q: What about the GI50 [22] of the same compound?
A: The GI50 was 1.24 µM.

Q: What about the TGI [22] of the same compound?
A: Its TGI is 2.83 µM.

Q: And the GI50 [23]?
A: Its GI50 is under 0.01 µM.

Q: What about the TGI [23] of the same compound?
A: Its TGI is 1.15 µM.

Q: And the GI50 [24]?
A: The GI50 was under 0.01 µM.

Q: What about the GI50 [25] of the same compound?
A: The GI50 was 6.67 µM.

Q: What about the TGI [25] of the same compound?
A: The TGI was 19.9 µM.

Q: And the GI50 [26]?
A: Its GI50 is 2.04 µM.

Q: And the TGI [26]?
A: Its TGI is 23.6 µM.

Q: What about the GI50 [27] of the same compound?
A: Its GI50 is 0.0187 µM.

Q: And the TGI [27]?
A: The TGI was 21.5 µM.

Q: And the GI50 [28]?
A: Its GI50 is 5.59 µM.

Q: What about the TGI [28] of the same compound?
A: Its TGI is 18.5 µM.

Q: What about the GI50 [29] of the same compound?
A: The GI50 was 5.62 µM.

Q: What about the TGI [29] of the same compound?
A: The TGI was 17.1 µM.

Q: And the GI50 [30]?
A: The GI50 was 11.2 µM.

Q: What about the TGI [30] of the same compound?
A: Its TGI is 37.8 µM.

Q: And the GI50 [31]?
A: Its GI50 is 3.95 µM.

Q: And the TGI [31]?
A: Its TGI is 17.8 µM.

Q: What about the GI50 [32] of the same compound?
A: The GI50 was 10.1 µM.

Q: And the TGI [32]?
A: The TGI was 35.9 µM.

Q: What about the GI50 [33] of the same compound?
A: Its GI50 is 12.1 µM.

Q: And the TGI [33]?
A: The TGI was 26.3 µM.

Q: What about the GI50 [34] of the same compound?
A: Its GI50 is 15.1 µM.

Q: And the TGI [34]?
A: The TGI was 29.5 µM.

Q: What about the GI50 [35] of the same compound?
A: Its GI50 is over 100 µM.

Q: And the TGI [35]?
A: The TGI was over 100 µM.

Q: And the GI50 [36]?
A: Its GI50 is 6.66 µM.

Q: What about the TGI [36] of the same compound?
A: Its TGI is 19.2 µM.

Q: What about the GI50 [37] of the same compound?
A: Its GI50 is 20.2 µM.

Q: What about the TGI [37] of the same compound?
A: Its TGI is 46 µM.

Q: What about the GI50 [38] of the same compound?
A: The GI50 was 11.9 µM.

Q: And the TGI [38]?
A: Its TGI is 38.4 µM.

Q: What about the GI50 [39] of the same compound?
A: The GI50 was 13.3 µM.

Q: What about the TGI [39] of the same compound?
A: The TGI was 36.9 µM.

Q: And the GI50 [40]?
A: Its GI50 is 8.79 µM.

Q: And the TGI [40]?
A: Its TGI is 34 µM.

Q: And the GI50 [41]?
A: Its GI50 is 10.5 µM.

Q: What about the TGI [41] of the same compound?
A: Its TGI is 22.4 µM.

Q: What about the GI50 [42] of the same compound?
A: The GI50 was 5.61 µM.

Q: And the TGI [42]?
A: The TGI was 19.2 µM.

Q: And the GI50 [43]?
A: Its GI50 is 3.65 µM.

Q: And the TGI [43]?
A: Its TGI is 13.8 µM.

Q: What about the GI50 [44] of the same compound?
A: Its GI50 is 20.2 µM.

Q: And the TGI [44]?
A: Its TGI is 43.5 µM.

Q: What about the GI50 [45] of the same compound?
A: Its GI50 is 12.6 µM.

Q: And the TGI [45]?
A: The TGI was 25.5 µM.

Q: And the GI50 [46]?
A: Its GI50 is under 0.01 µM.

Q: And the TGI [46]?
A: The TGI was 0.602 µM.

Q: And the GI50 [47]?
A: Its GI50 is 0.0669 µM.

Q: What about the TGI [47] of the same compound?
A: The TGI was 14 µM.

Q: What about the GI50 [48] of the same compound?
A: The GI50 was 6.83 µM.

Q: What about the TGI [48] of the same compound?
A: Its TGI is 23.6 µM.

Q: And the GI50 [49]?
A: Its GI50 is 8.01 µM.

Q: And the TGI [49]?
A: The TGI was 30.7 µM.

Q: And the GI50 [50]?
A: Its GI50 is 27.1 µM.

Q: What about the TGI [50] of the same compound?
A: The TGI was over 100 µM.

Q: And the GI50 [51]?
A: Its GI50 is 4.98 µM.

Q: And the TGI [51]?
A: Its TGI is 31.7 µM.

Q: What about the GI50 [52] of the same compound?
A: Its GI50 is 11.6 µM.

Q: And the TGI [52]?
A: The TGI was 25.5 µM.

Q: What about the GI50 [53] of the same compound?
A: The GI50 was 11.1 µM.

Q: And the TGI [53]?
A: The TGI was 23.4 µM.

Q: What about the GI50 [54] of the same compound?
A: The GI50 was 11.3 µM.

Q: And the TGI [54]?
A: The TGI was 48.2 µM.

Q: And the GI50 [55]?
A: The GI50 was 12.2 µM.

Q: What about the TGI [55] of the same compound?
A: Its TGI is 26.5 µM.

Q: And the GI50 [56]?
A: The GI50 was under 0.01 µM.

Q: And the GI50 [57]?
A: Its GI50 is 1.64 µM.

Q: And the TGI [57]?
A: The TGI was 22 µM.
